According to patent US20220031680A1, “Donecopride As Neuroprotective Agent In the Treatment of Neurodegenerative Diseases” (priority 2018, published 2022):
Values joined by “and” are separate entries in the source; they are usually repeats but may differ in a detail not shown here. Equal values may be shown once.

Tested on: rat primary cortical neurons after glutamate injury
Test: Survival and neurite network of primary cortical neurons after glutamate injury
Assay type: cell-based
Details: glutamate 20 μM 20 min; for concentrations significantly protecting cortical neurons from death: compound 1 h before and 48 h after; for concentration of maximal effect on neurite network: cortical neurons
Description: The present study assesses the neuroprotective effect of MR36014 and MR33583 (at 4 concentrations) in rat primary cortical neurons after glutamate injury. The test compounds were pre-incubated for 1 hour before glutamate application (20 μM for 20 min). The neuroprotective effect (survival and neurite network) of test compounds were investigated.
Rat cortical neurons were cultured as described by Callizot et al. (2013) J. Neurosci. Res. 91:706-716. Pregnant female rat (Wistar) of 15 days of gestation were killed using a deep anesthesia with CO2 chamber and a cervical dislocation. Briefly, fetuses were collected and immediately placed in ice-cold L15 Leibovitz medium with a 2% penicillin (10,000 U/mL) and streptomycin (10 mg/mL) solution (PS) and 1% bovine serum albumin (BSA). Cortex were treated for 20 min at 37° C. with a trypsin-EDTA solution at a final concentration of 0.05% trypsin and 0.02% EDTA. The dissociation was stopped by addition of Dulbecco's modified Eagle's medium (DMEM) with 4.5 g/l of glucose, containing DNAse I grade II (final concentration 0.5 mg/ml) and 10% fetal calf serum (FCS). Cells were mechanically dissociated by three forced passages through the tip of a 10-ml pipette. Cells were then centrifuged at 515×g for 10 min at 4° C. The supernatant was discarded, and the pellet was resuspended in a defined culture medium consisting of Neurobasal medium with a 2% solution of B27 supplement, 2 mmol/I L-glutamine, 2% PS solution, and 10 ng/ml brain-derived neurotrophic factor (BDNF). Viable cells were counted in a Neubauer cytometer, using the trypan blue exclusion test.
The cells were seeded at a density of 25,000 per well in 96-well plates precoated with poly-L-lysine and were cultured at 37° C. in an air (95%)-CO2 (5%) incubator.
Pre-incubation: On day 13 of culture, the compounds were dissolved in the culture medium and pre-incubated with primary cortical neurons for 1 hour, before glutamate exposure.
Injury: 1 hour after test compound incubation, glutamate was added to a final concentration of 20 μM diluted in control medium still in presence of the test compounds for 20 min. After 20 min, glutamate was washed out and fresh culture medium with the test compounds were added for additional 48 hours.
Test compounds were tested in 96-well plate (n=6 culture wells per condition). The following conditions were assessed: […]
The following read-outs will be investigated: • The total neuron survival (MAP-2 positive, number), (data will be expressed into mean number of neurons of 30 pictures per well). • The total neurite network (MAP-2 in μm), (data will be expressed into mean of neurons of 30 pictures per well).

Compound | concentrations significantly protecting cortical neurons from death | concentration of maximal effect on neurite network
COc1cc(N)c(F)cc1C(=O)CCC1CCN(CC2CCCC2)CC1 [MR33583] | 50 nM and 100 nM | 50 nM
COc1cc(N)c(F)cc1C(=O)CCC1CCN(CC2CCCCCC2)CC1 [MR36014] | 1 nM | 1 nM
